Experiments:
Assay in all cases: relative viability (nuclei count vs DMSO), 5 days (fraction); higher = more cells survive
[1] = compound: C1/C(=C\C2=CC=CS2)/C(=O)/C(=C/C3=CC=CS3)/C1 + CS(=O)(=O)N1CCN(Cc2cc3nc(-c4cccc5[nH]ncc45)nc(N4CCOCC4)c3s2)CC1 [Pictilisib] (partner 1 µM)
Method in brief: (§1)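 Relative viability equals treated-well nuclei counts divided by vehicle-well nuclei counts. Counts came from 4× images of lung cancer cell lines grown in 1536-well plates for 5 days after pin-tool dosing on the day after seeding. Dosing used one drug alone or a fixed anchor-drug dose plus five library-drug doses (not always all listed) in √10 steps, and values are medians of duplicate plates.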

[2] = compound: C[C@]12O[C@H](C[C@]1(O)CO)n1c3ccccc3c3c4c(c5c6ccccc6n2c5c31)CNC4=O [Lestaurtinib] + CC(=O)Nc1cccc(-n2c(=O)n(C3CC3)c(=O)c3c(Nc4ccc(I)cc4F)n(C)c(=O)c(C)c32)c1 [Trametinib] (partner 0.02 µM)
Method in brief: as §1

[3] = compound: C[C@]12O[C@H](C[C@]1(O)CO)n1c3ccccc3c3c4c(c5c6ccccc6n2c5c31)CNC4=O [Lestaurtinib] + CC(=O)c1c(C)c2cnc(Nc3ccc(N4CCNCC4)cn3)nc2n(C2CCCC2)c1=O [Palbociclib] (partner 0.5 µM)
Method in brief: as §1

[4] = compound: C[C@]12O[C@H](C[C@]1(O)CO)n1c3ccccc3c3c4c(c5c6ccccc6n2c5c31)CNC4=O [Lestaurtinib] + NC(=O)Nc1cc(-c2cccc(F)c2)sc1C(=O)N[C@H]1CCCNC1 [AZD7762] (partner 0.2 µM)
Method in brief: as §1

Cell Line	relative viability ([1]; first compound 0.2 µM)	relative viability ([1]; first compound 0.6325 µM)	relative viability ([1]; first compound 2 µM)	relative viability ([1]; first compound 6.325 µM)	relative viability ([1]; first compound 20 µM)	relative viability ([2]; first compound 0.005 µM)	relative viability ([2]; first compound 0.01581 µM)	relative viability ([2]; first compound 0.05 µM)	relative viability ([2]; first compound 0.1581 µM)	relative viability ([2]; first compound 0.5 µM)	relative viability ([3]; first compound 0.005 µM)	relative viability ([3]; first compound 0.01581 µM)	relative viability ([3]; first compound 0.05 µM)	relative viability ([3]; first compound 0.1581 µM)	relative viability ([3]; first compound 0.5 µM)	relative viability ([4]; first compound 0.005 µM)	relative viability ([4]; first compound 0.01581 µM)	relative viability ([4]; first compound 0.05 µM)	relative viability ([4]; first compound 0.1581 µM)	relative viability ([4]; first compound 0.5 µM)
NCI-H1395	0.618	0.73	0.67	0.448	0.581	1.17	0.896	0.927	0.923	0.608	0.646	0.617	0.547	0.573	0.477	0.385	0.405	0.407	0.384	0.325
NCI-H1437	0.437	0.402	0.406	0.404	0.36	0.569	0.684	0.56	0.691	0.603	0.35	0.371	0.369	0.364	0.415	1.13	1.2	0.941	1.12	0.945
NCI-H1651	0.527	0.596	0.646	–	0.516	0.86	0.919	0.887	0.832	0.77	0.536	0.594	0.551	0.569	0.497	0.447	0.503	0.349	0.558	0.318
NCI-H1666	0.587	0.281	0.408	0.273	0.309	0.898	0.892	0.882	0.88	0.781	0.705	0.704	0.638	0.74	0.646	0.753	0.903	0.933	1.01	0.654
NCI-H1734	0.466	0.447	0.487	0.44	0.501	0.788	0.788	0.712	0.478	0.267	0.352	0.255	0.338	0.331	0.197	0.502	0.512	0.447	0.326	0.18
NCI-H1755	0.475	0.436	0.435	0.353	0.386	0.766	0.774	0.731	0.571	0.407	0.446	0.427	0.464	0.376	0.382	0.437	0.401	0.492	0.344	0.25
NCI-H1792	0.257	0.314	0.298	–	0.247	0.429	0.516	0.339	0.386	0.244	0.976	0.734	0.491	0.768	0.366	0.758	0.669	0.556	0.387	0.174
NCI-H1793	0.409	0.202	0.291	0.31	0.352	0.425	0.467	0.432	0.461	0.346	0.333	0.36	0.324	0.335	0.26	0.406	0.485	0.357	0.422	0.303

From the supplement of paper PMC10307832
